We go through 18 molecules from patent US7504420B2, “Compounds which inhibit beta-secretase activity and methods of use” (CoMentis, Inc., priority 2005, dated 2009).

Counter-ions that a name gives are not always drawn. Like-named read-outs stand apart in the source and are kept apart here. Some results are limits rather than exact numbers.

The target in one experiment is memapsin 2 (Homo sapiens, UniProt P56817). Briefly: Inhibition of memapsin 2 catalytic activity (Ki). The class given is biochemical. The settings on record: memapsin 2, pH 4, 37° C.; read-out: M2K. As to the method:
Potency of compounds were determined by measurement of their inhibition of memapsin 2 catalytic activity toward a fluorescent substrate. […] Briefly, assays were performed at pH 4, 37° C., by pre-incubation of memapsin 2 enzyme with compound for 20 minutes. Activity measure was initiated by addition of a fluorogenic substrate FS-2 (Bachem Americas, Torrance, Calif.). Fluorescent signal increase over time was measured as a rate of hydrolysis of the peptide substrate. […]

Experiment [1] relates to Aβ production in Chinese hamster ovary cells that over-express human APP695 with the London and Swedish mutations. In words: Cellular Aβ IC50 determination (Aβ40 sandwich ELISA). The settings on record: 24 h.
Protocol: The potency of compounds against memapsin 2 catalytic activity was determined in a cellular assay of Aβ production. […] Compounds are dissolved in DMSO to concentrations near 1 mM, and diluted into culture media to a final concentration near 4 μM (final 0.4% DMSO). Compounds were diluted serially and applied to cells in multi-well plates 48 h after seeding. Incubation was continued in 5% CO2 at 37 degrees C. for 24 h. Aliquots were removed and assayed for Aβ40 content using a sandwich ELISA (BioSource International). Amount of Aβ40 over the range of concentration of compounds, relative to control incubations, were fit to a 4-parameter IC50 model.
Setting [2] is: Cricetulus griseus, CHO, read-out: Cell, Aβ40, CHO cells over-expressing human APP695 (London and Swedish mutations), 24 h.

memapsin 2, sequence (P56817 46-501): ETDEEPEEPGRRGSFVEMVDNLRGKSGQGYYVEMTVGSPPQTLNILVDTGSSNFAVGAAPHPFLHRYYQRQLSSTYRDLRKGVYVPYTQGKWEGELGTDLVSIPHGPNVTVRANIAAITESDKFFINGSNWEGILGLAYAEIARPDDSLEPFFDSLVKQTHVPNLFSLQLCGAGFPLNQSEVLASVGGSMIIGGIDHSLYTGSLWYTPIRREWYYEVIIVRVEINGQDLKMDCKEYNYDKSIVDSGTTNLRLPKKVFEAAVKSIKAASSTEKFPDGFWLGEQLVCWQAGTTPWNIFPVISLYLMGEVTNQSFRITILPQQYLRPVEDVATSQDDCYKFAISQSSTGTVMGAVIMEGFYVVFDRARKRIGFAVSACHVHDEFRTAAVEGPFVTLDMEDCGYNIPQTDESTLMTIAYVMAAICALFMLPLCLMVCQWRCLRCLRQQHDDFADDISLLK

`CCc1csc(CN(C)C(=O)c2cccc(C(=O)NC(Cc3ccccc3)C(O)CNCc3cccc(OC)c3)c2)n1` (stereo not shown) [N1-((4-ethylthiazol-2-yl)methyl)-N3-(3-hydroxy-4-(3-methoxybenzylamino)-1-phenylbutan-2-yl)-N1-methylisophthalamide]: the Ki at memapsin 2 is < 300 nM. In addition, the IC50 in experiment [1] (setting [2]) is < 1000 nM.
On to `COc1ccc(CCNCC(O)C(Cc2ccccc2)NC(=O)c2cccc(C(=O)N(C)Cc3nc(C)cs3)c2)cc1` (stereo not shown) [N1-(3-hydroxy-4-(4-methoxyphenethylamino)-1-phenylbutan-2-yl)-N3-methyl-N3-((4-methylthiazol-2-yl)methyl)isophthalamide], for which the Ki on memapsin 2 is > 501 nM. The IC50 in experiment [1] (setting [2]) is 1000 to 5000 nM.
On to `COc1cccc(CNCC(O)C(Cc2ccccc2)NC(=O)c2cccc(C(=O)N(C)Cc3csc(C)n3)c2)c1` (stereo not shown) [N1-(3-hydroxy-4-(3-methoxybenzylamino)-1-phenylbutan-2-yl)-N3-methyl-N3-((2-methylthiazol-4-yl)methyl)isophthalamide], for which the Ki at memapsin 2 was < 300 nM. Moreover, the IC50 in experiment [1] (setting [2]) was < 1000 nM.
For `CC(NC(=O)c1cc(C(=O)NC(Cc2ccccc2)C(O)CNCc2ccc3c(c2)OCO3)cc(N(C)S(C)(=O)=O)c1)c1ccccc1` (stereo not shown) [N1-(4-(benzo[d][1,3]dioxol-5-ylmethylamino)-3-hydroxy-1-phenylbutan-2-yl)-5-(N-methylmethylsulfonamido)-N3-(1-phenylethyl)isophthalamide], in that order: < 300 nM and < 1000 nM.
The matching figures for `COc1ccccc1CNCC(O)C(Cc1ccccc1)NC(=O)c1cccc(C(=O)N(C)Cc2nc(C)cs2)c1` (stereo not shown) [N1-(3-hydroxy-4-(2-methoxybenzylamino)-1-phenylbutan-2-yl)-N3-methyl-N3-((4-methylthiazol-2-yl)methyl)isophthalamide]: > 501 nM and 1000 to 5000 nM.
For the molecule `COc1cccc(CNCC(O)C(Cc2ccccc2)NC(=O)c2cc(C(=O)N(C)Cc3nc(C)cs3)cc([N+](=O)[O-])c2)c1` (stereo not shown) [N1-(3-hydroxy-4-(3-methoxybenzylamino)-1-phenylbutan-2-yl)-N3-methyl-N3-((4-methylthiazol-2-yl)methyl)-5-nitroisophthalamide], the Ki at memapsin 2 is < 300 nM. Besides, in experiment [1] (setting [2]), the IC50 is < 1000 nM.
For `CCOc1cccc(CNCC(O)C(Cc2ccccc2)NC(=O)c2cc(C(=O)NC(C)c3ccccc3)cc(N(C)S(C)(=O)=O)c2)c1` (stereo not shown) [N1-(4-(3-ethoxybenzylamino)-3-hydroxy-1-phenylbutan-2-yl)-5-(N-methylmethylsulfonamido)-N3-(1-phenylethyl)isophthalamide], in that order: < 300 nM and < 1000 nM.
As for `COc1cccc(CN(CC(O)C(Cc2ccccc2)NC(=O)c2cc(C(=O)NC(C)c3ccccc3)cc(N(C)S(C)(=O)=O)c2)C(=O)CCCC(=O)NCCN2CCOCC2)c1` (stereo not shown) [N1-(3-hydroxy-4-(N-(3-methoxybenzyl)-5-(2-morpholinoethylamino)-5-oxopentanamido)-1-phenylbutan-2-yl)-5-(N-methylmethylsulfonamido)-N3-(1-phenylethyl)isophthalamide], the IC50 in experiment [1] (setting [2]) was > 5000 nM.
On to `COc1cccc(CNCC(O)C(Cc2ccccc2)NC(=O)c2cc(C(=O)NC(C)c3nc(C)cs3)cc(N(C)S(C)(=O)=O)c2)c1` (stereo not shown) [N1-(3-hydroxy-4-(3-methoxybenzylamino)-1-phenylbutan-2-yl)-5-(N-methylmethylsulfonamido)-N3-(1-(4-methylthiazol-2-yl)ethyl)isophthalamide], for which the IC50 in experiment [1] (setting [2]) was < 1000 nM.
`CC(C)CN1CCC(CNCC(O)C(Cc2ccccc2)NC(=O)c2cc(C(=O)NC(C)c3ccccc3)cc(N(C)S(C)(=O)=O)c2)CC1` (stereo not shown) [N1-(3-hydroxy-4-((1-isobutylpiperidin-4-yl)methylamino)-1-phenylbutan-2-yl)-5-(N-methylmethylsulfonamido)-N3-(1-phenylethyl)isophthalamide dihydrochloride]: the IC50 in experiment [1] (setting [2]) was > 5000 nM.
For the molecule `COc1cccc(CN(CC(O)C(Cc2ccccc2)NC(=O)c2cc(C(=O)NC(C)c3ccccc3)cc(N(C)S(C)(=O)=O)c2)C(=O)CCC(=O)NCCN2CCOCC2)c1` (stereo not shown) [N1-(3-hydroxy-4-(N-(3-methoxybenzyl)-4-(2-morpholinoethylamino)-4-oxobutanamido)-1-phenylbutan-2-yl)-5-(N-methylmethylsulfonamido)-N3-(1-phenylethyl)isophthalamide], in experiment [1] (setting [2]), the IC50 is 1000 to 5000 nM.
Consider `COc1cccc(CNCC(O)C(Cc2cc(F)cc(F)c2)NC(=O)c2cc(C(=O)NC(C)c3ccccc3)cc(N(C)S(C)(=O)=O)c2)c1` (stereo not shown) [N1-(1-(3,5-difluorophenyl)-3-hydroxy-4-(3-methoxybenzylamino)butan-2-yl)-5-(N-methylmethylsulfonamido)-N3-(1-phenylethyl)isophthalamide], for which the IC50 in experiment [1] (setting [2]) was < 1000 nM.
For the molecule `COc1ccccc1CN1CCC(CNCC(O)C(Cc2ccccc2)NC(=O)c2cc(C(=O)NC(C)c3ccccc3)cc(N(C)S(C)(=O)=O)c2)CC1` (stereo not shown) [N1-(3-hydroxy-4-((1-(2-methoxybenzyl)piperidin-4-yl)methylamino)-1-phenylbutan-2-yl)-5-(N-methylmethylsulfonamido)-N3-(1-phenylethyl)isophthalamide dihydrochloride], in experiment [1] (read-out: Cell, Aβ40, CHO cells over-expressing human APP695 (London and Swedish mutations), dihydrochloride), the IC50 was > 5000 nM.
As for `COc1cccc(CN(CC(O)C(Cc2ccccc2)NC(=O)c2cc(C(=O)NC(C)c3ccccc3)cc(N(C)S(C)(=O)=O)c2)C(=O)CCC(=O)NCc2cccnc2)c1` (stereo not shown) [N1-(3-hydroxy-4-(N-(3-methoxybenzyl)-4-oxo-4-(pyridin-3-ylmethylamino)butanamido)-1-phenylbutan-2-yl)-5-(N-methylmethylsulfonamido)-N3-(1-phenylethyl)isophthalamide], the IC50 in experiment [1] (setting [2]) was > 5000 nM.
On to `COc1ccnc(CNCC(O)C(Cc2ccccc2)NC(=O)c2cc(C(=O)NC(C)c3ccccc3)cc(N(C)S(C)(=O)=O)c2)c1` (stereo not shown) [N1-(3-hydroxy-4-((4-methoxypyridin-2-yl)methylamino)-1-phenylbutan-2-yl)-5-(N-methylmethylsulfonamido)-N3-(1-phenylethyl)isophthalamide], for which the IC50 in experiment [1] (setting [2]) was < 1000 nM.
With `COC(=O)CCCC(=O)N(Cc1cccc(OC)c1)CC(O)C(Cc1ccccc1)NC(=O)c1cc(C(=O)NC(C)c2ccccc2)cc(N(C)S(C)(=O)=O)c1` (stereo not shown) [methyl 5-((2-hydroxy-3-(3-(N-methylmethylsulfonamido)-5-(1-phenylethylcarbamoyl)benzamido)-4-phenylbutyl)(3-methoxybenzyl)amino)-5-oxopentanoate], the IC50 in experiment [1] (setting [2]) was < 1000 nM.
As for `COc1cccc(CN(CC(O)C(Cc2ccccc2)NC(=O)c2cc(C(=O)NC(C)c3ccccc3)cc(N(C)S(C)(=O)=O)c2)C(=O)CCC(=O)OCC(O)C2OC(=O)C(O)=C2O)c1` (stereo not shown) [2-(3,4-dihydroxy-5-oxo-2,5-dihydrofuran-2-yl)-2-hydroxyethyl 4-((2-hydroxy-3-(3-(N-methylmethylsulfonamido)-5-(1-phenylethylcarbamoyl)benzamido)-4-phenylbutyl)(3-methoxybenzyl)amino)-4-oxobutanoate], the IC50 in experiment [1] (setting [2]) was in the range of 1000 to 5000 nM.
Still for that read-out and setting: next, `CC(C)Cc1cncc(CNCC(O)C(Cc2ccccc2)NC(=O)c2cc(C(=O)NC(C)c3ccccc3)cc(N(C)S(C)(=O)=O)c2)c1` (stereo not shown) [N1-(3-hydroxy-4-((5-isobutylpyridin-3-yl)methylamino)-1-phenylbutan-2-yl)-5-(N-methylmethylsulfonamido)-N3-(1-phenylethyl)isophthalamide]: < 1000 nM.
